Results: patent US4897382A, “Organic amide compounds derived from nitrogenous lipids” (priority 1981, dated 1990)

Assays:
[1] = test system: synaptic membranes of the rat cortex; assay: Binding of ^3H-GABA on synaptic membranes of the rat cortex (method of Enna and Snyder); conditions: for Product bound % (^3H-GABA binding on rat cortex membranes): ^3H-GABA 2.10^-8 M
From the text: Table I presents the results of these tests, expressed in percentage of the fixed active product, comparing the in vitro activity of Product 1 with the activities of the individual components which comprise Product 1.

[2] = mice; cited from earlier work
[3] = GABA by itself; cited from earlier work
[4] = background statement; cited from earlier work
[5] = Anticonvulsant effects in rat (isoniazide convulsions); type: in vivo
Protocol: The in vivo activity of Product 1 was measured by the method described by Costa et al (E. Costa, A. Guidotti and C. C. Mao; "Evidence for involvement of GABA in the Action of Benzodiazepines: Studies in Rat Cerebellum" in Mechanism of Action of Benzodiazepines; Ed. by E. Costa and P. Greengard, New York, Raven Press. pp. 113-130 (1975)) and by Loescher and Frey (Loesher, W. and Frey, H. H.; "Effect of convulsant and anticonvulsant agents on level and metabolism of gamma-aminobutyric acid in mouse brain"; Naunyn-Schmiedeberg's Arch. Pharmacol. 296, 263-269 (1977)). These tests are based on the known activity of isoniazide to cause convulsions and a lowering of the GABA cerebral levels and the glutamic-decarboxylase enzyme activity.

[6] = General pharmacological activity in vitro and in vivo; conditions: tested in vitro and in vivo in laboratory animals
[7] = test substance 10^-8 M, 0.01 µM
[8] = isoniazide 160 mg/kg (s.c.) + GABA 8 mg/kg (i.p.)
[9] = isoniazide 160 mg/kg (s.c.) + Product 1 20 mg/kg (i.p.)

For NCCCC(=O)O [GABA, Gamma-aminobutyric acid], the “Product bound % (^3H-GABA binding on rat cortex membranes)” value (“Product bound %” below) ([1]; test substance 10^-4 M, 100 µM) was 20%, the “Product bound %” value ([1]; test substance 10^-5 M, 10 µM) was 20% and the “Product bound %” value ([1]; test substance 10^-6 M, 1 µM) was 25%. The “Product bound %” value ([1]; test substance 10^-7 M, 0.1 µM) was 45%, the “Product bound %” value [1, 7] was 90% and the “in vitro biological activity (GABA binding), in words” value ([1]; summary of Table I) was “activity comparable to that of Product 1”. The “effect when administered in vivo as measured by convulsion tests” value [2] was “ineffective”, the “penetration of the encephalic barrier, in words” value [3] was “incapable, by itself, of penetrating the encephalic barrier” and the “in vitro / in vivo activity, in words” value [4] was “active in vitro but relatively inactive in vivo”. For the same molecule, the “Latency of the convulsions measured” value [5, 8] was 3100 ± 156 s, the “Number of animals in convulsions” value [5, 8] was 24/30 and the “Number of dead animals” value [5, 8] was 14.

With CCCCCCCCCCCCCC=CC(O)C(CO)NC(=O)CCCN (stereo not shown) [Product 1, Gamma-aminobutyrylsphingosine amide] the “Product bound %” value ([1]; test substance 10^-4 M, 100 µM) was 20%, the “Product bound %” value ([1]; test substance 10^-5 M, 10 µM) was 25% and the “Product bound %” value ([1]; test substance 10^-6 M, 1 µM) was 40%. The “Product bound %” value ([1]; test substance 10^-7 M, 0.1 µM) was 60%, the “Product bound %” value [1, 7] was 95% and the “action in the central nervous system, in words” value [6] was “capable of acting directly in the central nervous system”. For the same molecule, the “in vivo (anticonvulsant) activity, in words” value ([5]; compared to GABA or sphingosine alone) was “far superior in vivo activity as compared to GABA or sphingosine alone”, the “Latency of the convulsions measured” value [5, 9] was 4500 ± 330 s and the “Number of animals in convulsions” value [5, 9] was 9/30. For the same molecule, the “Number of dead animals” value [5, 9] was 3.
